Entries after “also recorded” stand apart in the source; their conditions may differ.
Key:
[1] = test system: human blood plasma; test: Thrombin time (TT) clotting assay; format: biochemical
Method: (§1) Human blood plasma was isolated from fresh buffy coats (collected onto the citrate-dextrose solution—ACD) purchased from the Regional Centre of Blood Donation and Blood Treatment in Lodz, Poland. In the isolation procedure, the buffy coats (60 mL units) were divided into volumes of 10 mL and centrifuged (4000 rpm/15 min) in 15 mL tubes. Next, 1 mL solutions of each amide 1–8 were prepared in distilled water at concentrations of 10, 25, and 50 mg/L. Then, 450 μL of plasma and 50 μL of each amide at the tested concentrations were placed into 1.5 mL vials. The vials were vortexed (Vortex Biosan V-1 plus), incubated at 37 °C on a thermoblock (Dry Block Thermostat Biosan TDB-120), and analyzed using a Kselmed K-3002 OPTIC coagulometer (Grudziądz, Poland), based on the manufacturer’s protocols (described below). The control sample was native blood plasma, untreated with any of the examined substances.
Both 100 μL of control plasma and plasma samples treated with the amides were transferred to measuring cuvettes, which were placed in the thermoblock module (37 °C) of the coagulometer (KSELMED K-3002 Optic). Then, 100 μL of thrombin solution (4.5 U/mL, in 0.9% NaCl; Biomed, Lublin, Poland) was added to the cuvette. Measurements were started immediately.

[2] = test system: human blood plasma; test: Clot formation and fibrinolysis (CFF) assay; format: biochemical; conditions: for Amax (maximum of fibrin clot absorbance at 360 nm) / VmaxC (of Fibrin Polymerization) / VmaxF (of Fibrin Clot Lysis): control plasma assumed as 100%, mean ± SD, n = 5–7; for effect on fibrin polymerization (VmaxC) in words: tested at 10, 25, 50 mg/L
Text: The CFF assay enables analysis of both the blood plasma coagulation process and fibrinolysis efficiency. The thrombin enzyme in the reagent mixture initiates blood plasma fibrinogen polymerization, leading to an increase in absorbance in the sample until the maximal absorbance (Amax) is attained. The fibrinolytic activity of blood plasma is induced by the tissue-type plasminogen activator (t-PA). The activation of fibrinolysis in the tested samples leads to fibrin clot degradation and decreases the absorbance to the baseline.
Figure 11 An exemplary curve of blood plasma coagulation and clot lysis recorded during the clot formation and fibrinolysis (CFF) assay. The first step in the CFF test involves activation of the blood plasma coagulation cascade and fibrin clot formation (1). It is characterized by the maximal velocity of the fibrin polymerization parameter (VmaxC). The maximal absorbance (Amax) peak corresponds to the fibrin stabilization phase and is an indicator of fibrin clot thickness (2). The third step of the CFF assay covers the activation of fibrinolytic mechanisms and fibrin clot degradation (3) and is described by the maximal velocity of clot lysis (VmaxF).
Thrombin was purchased from BioMed (Lublin, Poland). A tissue-type plasminogen activator (Actilyse®) was purchased from Boehringer Ingelheim, Ingelheim am Rhein, Germany. Kinetic measurements were executed using a SpectrostarNano microplate spectrophotometer (BMG LabTech, Ortenberg, Germany).
Measurements were performed using a kinetic model, as described in our previous work. Briefly, blood plasma was preincubated with the examined substances (at final concentrations of 10, 25, and 50 mg/L) for 15 min at 37 °C. Then, 100 μL of blood plasma was added to microtiter plate wells, which was followed by 200 μL of the reagent mixture (0.75 U/mL thrombin, 225 ng/mL t-PA and 7.5 mM CaCl2) suspended in tris-buffered saline (0.05 M TBS, 0.9% NaCl; pH 7.4). Measurements of absorbance changes were started immediately and continued for 60 min at 37 °C, λ = 360 nm. The following parameters were used to determine the effects of the examined substances on the coagulation and fibrinolytic properties of the blood plasma: the maximal velocity of fibrinogen polymerization (VmaxC), which is an indicator of the plasma coagulation efficiency; the maximal absorbance (Amax), which is an indicator of the fibrin clot stabilization and its thickness; the maximal velocity of clot lysis (VmaxF), which is an indicator of blood plasma fibrinolytic activity.

[3] = test system: human blood plasma; test: Prothrombin time (PT) clotting assay; format: biochemical
Method: as §1
(§2) Fifty microliters of control plasma and plasma samples treated with the amides were transferred to measuring cuvettes and placed in the thermoblock module (37 °C) of a coagulometer (KSELMED, K-3002 Optic). Then, 100 μL of Dia-PT reagent (DIAGON Kft. Hungary; cat. no. 81100) was added. Measurements were started immediately.

[4] = test system: human blood plasma; test: Activated partial thromboplastin time (aPTT) clotting assay; format: biochemical
Method: as §1
as §2, with “of the” for “of a”, “Then, 50” for “Then, 100”, “of Dia-APTT” for “of Dia-PT”, “no. 72048) was added. The mixture was incubated for 180 s at 37 °C. Finally, 50 μL of reagent Dia-CaCl2 (DIAGON Kft. Hungary; cat. no. 41192)” for “no. 81100)”

[5] = Hemolysis assay (stability of erythrocytes); format: cell-based, human; conditions: male, human, heparinized whole blood diluted with saline (erythrocytes)
Method: (§3) Heparinized whole blood was used from a healthy volunteer. The whole blood (10 mL) was diluted with saline solution (90 mL). For each UV-Vis measurement, 2.5 mL of diluted blood was used. For each blood sample, 1 mL of a saline solution containing hydrochlorides 1–8 at concentrations of 5, 50, and 500 mg/L was added. As a control were used blood samples with the addition of 1% solution of DMSO in saline and 1% solution of SDS in saline. In all cases, the measurements were repeated twice for each concentration. […] The cells were centrifuged, and the absorbance of the supernatant, which contained plasma and lysed erythrocytes, was measured at 540 nm. The percentage of lysis was calculated from a standard curve of lysed erythrocytes treated with SDS [52].

[6] = test system: erythrocytes; test: Hemolysis assay (stability of erythrocytes); format: cell-based, human
Method: as §3

Cl.NCCCCCC(=O)NCC(=O)O [Amide 1, 2-(6-Aminohexanamido)acetic acid hydrochloride]
TT Time [% of Control] ([1]; c 10 mg/L): 95.9 ± 6.3 % of Control
TT Time [% of Control] ([1]; c 25 mg/L): 96.1 ± 6.8 % of Control
TT Time [% of Control] ([1]; c 50 mg/L): 94.3 ± 8.3 % of Control
fibrinolytic activity (VmaxF), effect in words ([2]; 50 µg/mL): no statistically significant effect
Amax (maximum of fibrin clot absorbance at 360 nm) ([2]; 10 mg/L): 105.98 ± 4.31 %
VmaxC (of Fibrin Polymerization) ([2]; 10 mg/L): 106.12 ± 4.28 %
VmaxF (of Fibrin Clot Lysis) ([2]; 10 mg/L): 99.08 ± 9.93%
Amax (maximum of fibrin clot absorbance at 360 nm) ([2]; 25 mg/L): 107.24 ± 8.91%
VmaxC (of Fibrin Polymerization) ([2]; 25 mg/L): 105.66 ± 6.27%
VmaxF (of Fibrin Clot Lysis) ([2]; 25 mg/L): 87.32 ± 20.27%
Amax (maximum of fibrin clot absorbance at 360 nm) ([2]; 50 mg/L): 104.62 ± 9.46%
VmaxC (of Fibrin Polymerization) ([2]; 50 mg/L): 104.20 ± 3.85 %
VmaxF (of Fibrin Clot Lysis) ([2]; 50 mg/L): 95.58 ± 15.97%
effect on fibrin polymerization (VmaxC) in words [2]: Mild pro-coagulant effects
prothrombin time, effect versus control in words ([3]; at all concentrations (10, 25, 50 mg/L)): significantly decreased
PT Time [% of Control] ([3]; c 10 mg/L): 96.3 ± 2.5 % of Control
PT Time [% of Control] ([3]; c 25 mg/L): 95.0 ± 2.9 % of Control
PT Time [% of Control] ([3]; c 50 mg/L): 95.7 ± 2.2 % of Control
aPTT Time [% of Control] ([4]; c 10 mg/L): 108.3 ± 11.9 % of Control
aPTT Time [% of Control] ([4]; c 25 mg/L): 105.1 ± 7.7 % of Control
aPTT Time [% of Control] ([4]; c 50 mg/L): 101.9 ± 9.3 % of Control
aPTT, effect versus control in words ([4]; tested at 10, 25, 50 mg/L): not statistically significant
hemolysis at 45 min, 5 mg/L ([5]; c 5 mg/L, 45 min): 0%
hemolysis at 45 min, 50 mg/L ([5]; c 50 mg/L, 45 min): 0.5%
hemolysis at 120 min, 50 mg/L ([5]; c 50 mg/L, 120 min): 0.18%
hemolysis at 240 min, 50 mg/L ([5]; c 50 mg/L, 240 min): 0.35%
hemolysis at 120 min, 500 mg/L ([5]; c 500 mg/L, 120 min): 0.56%
hemolysis at 240 min, 500 mg/L ([5]; c 500 mg/L, 240 min): 0.42%
Hemolysis [%] ([6]; c 500 mg/L, 45 min): 0.27%
Hemolysis [%] ([6]; c 500 mg/L, 120 min): 0.59%
Hemolysis [%] ([6]; c 500 mg/L, 240 min): 0.58%

Cl.NCC(=O)NCCCCCC(=O)O [Amide 8, 6-(2-Aminoacetamido)hexanoic acid hydrochloride]
melting point: 120 to 123 °C
TT Time [% of Control] ([1]; c 10 mg/L): 100.0 ± 7.0 % of Control
TT Time [% of Control] ([1]; c 25 mg/L): 94.3 ± 1.3 % of Control
TT Time [% of Control] ([1]; c 50 mg/L): 92.4 ± 5.2 % of Control
TT, effect versus control in words ([1]; c = 25, and 50 mg/L): shorter TT than the control sample
Amax (maximum of fibrin clot absorbance at 360 nm) ([2]; 10 mg/L): 104.83 ± 2.83 %
VmaxC (of Fibrin Polymerization) ([2]; 10 mg/L): 101.96 ± 6.62%
VmaxF (of Fibrin Clot Lysis) ([2]; 10 mg/L): 82.96 ± 12.49 %
Amax (maximum of fibrin clot absorbance at 360 nm) ([2]; 25 mg/L): 100.18 ± 3.77%
VmaxC (of Fibrin Polymerization) ([2]; 25 mg/L): 100.98 ± 6.60%
VmaxF (of Fibrin Clot Lysis) ([2]; 25 mg/L): 96.07 ± 14.56%
Amax (maximum of fibrin clot absorbance at 360 nm) ([2]; 50 mg/L): 108.64 ± 11.94%
VmaxC (of Fibrin Polymerization) ([2]; 50 mg/L): 105.67 ± 8.34%
VmaxF (of Fibrin Clot Lysis) ([2]; 50 mg/L): 66.90 ± 23.22 %
effect on fibrin polymerization (VmaxC) in words [2]: did not influence
PT Time [% of Control] ([3]; c 10 mg/L): 93.0 ± 2.2 % of Control
PT Time [% of Control] ([3]; c 25 mg/L): 95.5 ± 4.3 % of Control
PT Time [% of Control] ([3]; c 50 mg/L): 97.2 ± 3.2 % of Control
prothrombin time, effect versus control in words ([3]; concentration not specified (10, 25, 50 mg/L tested)): slightly but statistically significantly reduced
prothrombin time, effect versus control in words ([3]; lowest concentration (10 mg/L)): fell only slightly; also recorded: most effectively lowered
aPTT Time [% of Control] ([4]; c 10 mg/L): 95.1 ± 7.5 % of Control
aPTT Time [% of Control] ([4]; c 25 mg/L): 97.7 ± 5.9 % of Control
aPTT Time [% of Control] ([4]; c 50 mg/L): 95.2 ± 7.3 % of Control
hemolysis at 45 min, 5 mg/L ([5]; c 5 mg/L, 45 min): 0.08%
hemolysis at 120 min, 5 mg/L ([5]; c 5 mg/L, 120 min): 0.74%
hemolysis at 45 min, 50 mg/L ([5]; c 50 mg/L as printed in the third concentration block of amides 7 and 8, 45 min): 0%
hemolysis at 120 min, 50 mg/L ([5]; c 50 mg/L as printed in the third concentration block of amides 7 and 8, 120 min): 0.47%
hemolysis at 240 min, 50 mg/L ([5]; c 50 mg/L as printed in the third concentration block of amides 7 and 8, 240 min): 0.37%
hemolysis at 45 min, 50 mg/L ([5]; c 50 mg/L, 45 min): 0.44%
hemolysis at 120 min, 50 mg/L ([5]; c 50 mg/L, 120 min): 0.71%
hemolysis at 240 min, 50 mg/L ([5]; c 50 mg/L, 240 min): 0.36%
Hemolysis [%] ([6]; c 50 mg/L, 240 min): 0.3%

Reference: paper PMC9000710, “Synthesis and Hemostatic Activity of New Amide Derivatives” (Molecules, 2022)
